The structures appear in SMILES notation. ≈ marks a conversion by molar mass, not a printed value. Bounds are passed on as bounds.

Among the test systems are Escherichia coli K-12; Bacillus megaterium; Klebsiella pneumoniae; Shigella dysenteriae; Escherichia coli ML-35p; Escherichia coli UB1005.
Holding throughout (experiment): ≥ marks a high value that may be exact or a test limit, other limits are often not marked, values filed in µg/mL are converted to µM
In assay [1] the test system is Pseudomonas aeruginosa ATCC 9027.
The test system of assay [2] is Staphylococcus aureus ATCC 25923.
Assay [3] concerns Enterococcus faecalis PCM 2673.
For assay [4], the system named is Candida albicans ATCC 10231.
Assay [5] concerns Escherichia coli ATCC 25922.
The subject of assay [6] is Staphylococcus aureus USA 300.
The subject of assay [7] is Staphylococcus aureus ATCC 2592.
In assay [8] the test system is Pseudomonas aeruginosa CMCCB 10104.
The test system of assay [9] is Candida albicans ATCC 2002.
The subject of assay [10] is Staphylococcus epidermidis ATCC 12228.
For assay [11], the system named is Candida albicans ATCC 24433.
The subject of assay [12] is Cronobacter sakazakii DPC 6440.
Assay [13] relates to Listeria monocytogenes LO28.
Assay [14] concerns Listeria monocytogenes EGD.
Assay [15] concerns Pseudomonas aeruginosa ATCC 27853.
Assay [16] relates to Staphylococcus aureus RN4220.
In assay [17] the test system is Salmonella enterica subsp. enterica serovar Pullorum C79-13.
In assay [18] the test system is Salmonella enterica subsp. enterica serovar Typhimurium ATCC 14028.
In assay [19] the test system is Enterococcus faecalis ATCC 29212.
In assay [20] the test system is Staphylococcus aureus ATCC 29213.
For assay [21], the system named is Bacillus subtilis CMCC 63501.

As for `CC[C@H](C)[C@H](NC(=O)[C@H](CCCCN)NC(=O)[C@H](CCCCN)NC(=O)[C@@H](NC(=O)[C@@H](NC(=O)[C@H](CC(=O)O)NC(=O)[C@H](Cc1ccccc1)NC(=O)[C@H](CC(C)C)NC(=O)[C@H](C)N)[C@@H](C)CC)[C@@H](C)CC)C(=O)N[C@@H](C)C(=O)N[C@@H](CCC(=O)O)C(=O)N[C@@H](CO)C(=O)N[C@@H](Cc1ccccc1)C(N)=O` [ALFDIIKKIAESF], the MIC was 343 µM (≈ 512 µg/mL) in assay [1]; 343 µM (≈ 512 µg/mL) in [2]; at least 85.6 µM in assay [3]; 85.6 µM (≈ 128 µg/mL) in assay [4]; 85.6 µM (≈ 128 µg/mL) in assay [5].

With `CC(C)[C@H](NC(=O)[C@H](CO)NC(=O)[C@H](Cc1cnc[nH]1)NC(=O)[C@H](Cc1ccccc1)NC(=O)[C@H](C)NC(=O)[C@H](CCCCN)NC(=O)CNC(=O)[C@H](Cc1ccccc1)NC(=O)CN)C(=O)N[C@@H](CO)C(=O)N[C@@H](CC(N)=O)C(=O)N[C@@H](Cc1ccccc1)C(=O)N[C@@H](C)C(=O)N[C@@H](CCCCN)C(=O)N[C@@H](CCCCN)C(=O)N[C@@H](Cc1cnc[nH]1)C(=O)N[C@@H](CCCCN)C(=O)N[C@H](C(=O)N[C@@H](C)C(N)=O)[C@@H](C)O` [GFGKAFHSVSNFAKKHKTA], the MIC (in assay [6]; against Escherichia coli K-12) was at least 100 µM throughout.

On to `CC[C@H](C)[C@H](N=C(O)CN)C(O)=NCC(O)=N[C@H](C(O)=N[C@@H](CCCCN)C(O)=N[C@H](C(O)=N[C@@H](CC(C)C)C(O)=NCC(O)=NCC(O)=N[C@H](C(O)=N[C@@H](CCCCN)C(O)=N[C@H](C(O)=N[C@@H](C)C(O)=N[C@@H](CC(C)C)C(O)=N[C@@H](CCCCN)C(O)=NCC(O)=N[C@@H](C)C(O)=N[C@@H](CC(C)C)C(O)=N[C@@H](CCCCN)C(O)=N[C@@H](CCC(=O)O)C(O)=N[C@@H](CC(C)C)C(O)=N[C@@H](C)C(O)=N[C@@H](CO)C(O)=N[C@H](C(O)=N[C@@H](Cc1ccc(O)cc1)C(O)=N[C@@H](C)C(O)=N[C@@H](CC(=N)O)C(=N)O)[C@@H](C)O)[C@@H](C)O)C(C)C)[C@@H](C)CC)[C@@H](C)O` [GIGTKILGGVKTALKGALKELASTYAN], for which the MIC worked out at 7.29 µM (≈ 19.5 µg/mL) in assay [7]; 7.29 µM (≈ 19.5 µg/mL) in [8]; 7.29 µM (≈ 19.5 µg/mL) in the assay on Bacillus megaterium; 1.12 µM (≈ 3 µg/mL) in assay [9]; 3.36 µM (≈ 9 µg/mL) with Klebsiella pneumoniae; 1.01 µM (≈ 2.7 µg/mL) with Shigella dysenteriae. The MIC in assay [5] came out at 7.29 µM (≈ 19.5 µg/mL).

Regarding `CC[C@H](C)[C@H](NC(=O)[C@H](C)NC(=O)[C@H](CCCCN)NC(=O)[C@@H](NC(=O)[C@@H](NC(=O)[C@H](CC(=O)O)NC(=O)[C@H](Cc1ccccc1)NC(=O)[C@H](CC(C)C)NC(=O)CN)[C@@H](C)CC)[C@@H](C)CC)C(=O)N[C@@H](C)C(=O)N[C@@H](CCC(=O)O)C(=O)N[C@@H](CO)C(=O)N[C@@H](Cc1ccccc1)C(N)=O` [GLFDIIKAIAESF], the MIC in [1] is above 360 µM; in assay [2] it was above 360 µM; in assay [3] it was at least 45 µM; in assay [4], 45 µM (≈ 64 µg/mL); in assay [5], 89.9 µM (≈ 128 µg/mL).

Turning to `CC(C)C[C@H](NC(=O)CNC(=O)CNC(=O)CNC(=O)[C@H](C)NC(=O)[C@H](CC(C)C)NC(=O)[C@H](CC(N)=O)NC(=O)CNC(=O)[C@H](CC(C)C)NC(=O)[C@H](CC(C)C)NC(=O)CNC(=O)[C@@H](NC(=O)[C@@H](NC(=O)[C@H](CO)NC(=O)[C@H](CC(N)=O)NC(=O)[C@H](CC(C)C)NC(=O)[C@H](CC(C)C)NC(=O)CNC(=O)[C@H](CO)NC(=O)[C@@H](NC(=O)[C@H](CC(C)C)NC(=O)CN)C(C)C)C(C)C)[C@@H](C)O)C(=O)O` [GLVSGLLNSVTGLLGNLAGGGL], the results for the MIC in assay [10], in assay [11] and in assay [5] were above 100 µM, at least 100 µM and above 100 µM, respectively.

With `CC[C@H](C)[C@H](NC(=O)[C@H](Cc1c[nH]c2ccccc12)NC(=O)[C@@H]1CCCN1C(=O)[C@H](CCCCN)NC(=O)[C@H](CCSC)NC(=O)[C@H](C)NC(=O)[C@@H](N)CCCCN)C(=O)N[C@@H](CCC(N)=O)C(=O)N1CCC[C@H]1C(=O)N[C@@H](CCCCN)C(=O)N[C@H](C(=O)N[C@@H](CCCCN)C(=O)N[C@H](C(=O)N[C@H](C(=O)N1CCC[C@H]1C(=O)O)[C@@H](C)CC)C(C)C)[C@@H](C)O` [KAMKPWIQPKTKVIP], the MIC was at least 1250 µM in assay [12] and at least 156 µM in [13].

As for `CC[C@H](C)[C@H](NC(=O)[C@H](C)NC(=O)[C@@H](NC(=O)[C@@H](NC(=O)[C@@H](NC(=O)CNC(=O)[C@H](CCCCN)NC(=O)[C@H](CCCCN)NC(=O)CNC(=O)[C@@H](N)CCCCN)C(C)C)[C@@H](C)CC)[C@@H](C)CC)C(=O)N[C@@H](CC(C)C)C(=O)N[C@@H](CC(C)C)C(=O)N[C@@H](Cc1ccccc1)C(=O)N[C@@H](C)C(=O)N[C@H](C(=O)N[C@H](C(=O)N[C@@H](Cc1ccc(O)cc1)C(=O)N[C@@H](CCCCN)C(=O)N[C@@H](CCCCN)C(=O)N[C@@H](CCCCN)C(N)=O)[C@@H](C)CC)[C@@H](C)CC` [KGKKGVIIAILLFAIIYKKK], the MIC in assay [14] is at least 128 µM; in assay [2], 128 µM (≈ 287 µg/mL); in assay [15], 128 µM (≈ 287 µg/mL); in assay [5], 128 µM (≈ 287 µg/mL).

As for `NC(=O)[C@H](CCCN=C(N)N)NC(=O)[C@H](CCCN=C(N)N)NC(=O)[C@H](Cc1c[nH]c2ccccc12)NC(=O)[C@H](CCCN=C(N)N)NC(=O)[C@H](CCCN=C(N)N)NC(=O)[C@H](Cc1c[nH]c2ccccc12)NC(=O)[C@H](Cc1c[nH]c2ccccc12)NC(=O)[C@H](CCCN=C(N)N)NC(=O)[C@@H](N)CCCN=C(N)N` [RRWWRRWRR], the figures for the minimum inhibitory concentration (MIC) (in the assay with Escherichia coli ML-35p; in assay [16]) were 25 µM (≈ 37.8 µg/mL) and at least 100 µM, respectively.

On to `CC[C@H](C)[C@H](NC(=O)[C@@H](N)Cc1c[nH]c2ccccc12)C(=O)N[C@@H](C)C(=O)N1CCC[C@H]1C(=O)N[C@@H](CCCCN)C(=O)N[C@H](C(=O)N[C@@H](CCCCN)C(=O)N[C@H](C(=O)N[C@H](C(=O)N1CCC[C@H]1C(=O)N[C@@H](Cc1ccc(O)cc1)C(=O)N[C@H](C(=O)N[C@@H](CCCN=C(N)N)C(=O)N[C@@H](Cc1ccc(O)cc1)C(=O)N[C@@H](CC(C)C)C(=O)O)C(C)C)[C@@H](C)CC)C(C)C)[C@@H](C)O` [WIAPKTKVIPYVRYL], for which the minimum inhibitory concentration (MIC) in assay [12] is at least 78.1 µM; in assay [13] it was 19.5 µM (≈ 36.1 µg/mL).

For `CC[C@H](C)[C@H](NC(=O)[C@H](CCCCN)NC(=O)[C@H](C)NC(=O)[C@H](C)NC(=O)[C@H](C)NC(=O)[C@H](CCCCN)NC(=O)[C@H](C)NC(=O)[C@H](C)NC(=O)[C@H](C)NC(=O)[C@H](CCCCN)NC(=O)[C@@H](NC(=O)[C@@H](N)Cc1c[nH]c2ccccc12)[C@@H](C)CC)C(=O)N[C@@H](Cc1c[nH]c2ccccc12)C(N)=O` [WIKAAAKAAAKIW], the MIC in [17] amounted to 8 µM (≈ 11.4 µg/mL); against Escherichia coli UB1005, 8 µM (≈ 11.4 µg/mL); in [10] it was 32 µM (≈ 45.7 µg/mL); in [18], 32 µM (≈ 45.7 µg/mL); in assay [15], 32 µM (≈ 45.7 µg/mL); in [19] it was 32 µM (≈ 45.7 µg/mL). Also, the MIC in [20] was 32 µM (≈ 45.7 µg/mL); in [21] it was 8 µM (≈ 11.4 µg/mL); in assay [5], 8 µM (≈ 11.4 µg/mL).

For `CC[C@H](C)[C@H](NC(=O)[C@@H](N)Cc1c[nH]c2ccccc12)C(=O)N[C@@H](CCC(N)=O)C(=O)N1CCC[C@H]1C(=O)N[C@@H](CCCCN)C(=O)N[C@H](C(=O)N[C@@H](CCCCN)C(=O)N[C@H](C(=O)N[C@H](C(=O)N1CCC[C@H]1C(=O)N[C@@H](Cc1ccc(O)cc1)C(=O)N[C@H](C(=O)N[C@@H](CCCN=C(N)N)C(=O)N[C@@H](Cc1ccc(O)cc1)C(=O)N[C@@H](C)C(=O)O)C(C)C)[C@@H](C)CC)C(C)C)[C@@H](C)O` [WIQPKTKVIPYVRYA], the MIC in [12] is at least 78.1 µM; in assay [13], at least 39.1 µM.

One may read the MIC as the lowest concentration found to suppress growth. Read a low MIC as inhibition by little substance.

These data come from DBAASP.
